Data reported in PubChem BioAssay (NCI).
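The compound was tested at five concentrations on cells cultured in 96-well plates, with a 48-hour exposure period. Here, GI50 denotes the concentration required for 50% inhibition of growth. Definition used: TGI = concentration required for complete inhibition of growth.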

What was measured:
Assay in all cases: DTP human tumour cell line panel, 48 h
NCI-H460 lung = test system: NCI-H460 lung
CAKI-1 renal = test system: CAKI-1 renal
A498 renal = test system: A498 renal
ACHN renal = test system: ACHN renal
PC-3 prostate = test system: PC-3 prostate
U251 CNS = test system: U251 CNS
SN12C renal = test system: SN12C renal
HCT-15 colon = test system: HCT-15 colon
NCI-H226 lung = test system: NCI-H226 lung
MOLT-4 leukemia = test system: MOLT-4 leukemia
SW-620 colon = test system: SW-620 colon
786-0 renal = test system: 786-0 renal
MDA-MB-435 = test system: MDA-MB-435
DU-145 prostate = test system: DU-145 prostate
HCC-2998 colon = test system: HCC-2998 colon
CCRF-CEM leukemia = test system: CCRF-CEM leukemia
K-562 leukemia = test system: K-562 leukemia
SK-MEL-28 melanoma = test system: SK-MEL-28 melanoma
OVCAR-4 ovarian = test system: OVCAR-4 ovarian
MDA-MB-231 breast = test system: MDA-MB-231 breast
MALME-3M melanoma = test system: MALME-3M melanoma
M14 melanoma = test system: M14 melanoma
SNB-75 CNS = test system: SNB-75 CNS
RXF 393 renal = test system: RXF 393 renal
HL-60(TB) leukemia = test system: HL-60(TB) leukemia
HOP-62 NSCLC = test system: HOP-62 NSCLC
SF-539 CNS = test system: SF-539 CNS
EKVX NSCLC = test system: EKVX NSCLC
LOX IMVI melanoma = test system: LOX IMVI melanoma
COLO 205 colon = test system: COLO 205 colon
SK-MEL-2 melanoma = test system: SK-MEL-2 melanoma
SK-MEL-5 melanoma = test system: SK-MEL-5 melanoma
T-47D breast = test system: T-47D breast
A549 NSCLC = test system: A549 NSCLC
UO-31 renal = test system: UO-31 renal
BT-549 breast = test system: BT-549 breast
KM12 colon = test system: KM12 colon
SR leukemia = test system: SR leukemia
UACC-257 melanoma = test system: UACC-257 melanoma
TK-10 renal = test system: TK-10 renal
HCT-116 colon = test system: HCT-116 colon
OVCAR-5 ovarian = test system: OVCAR-5 ovarian
SK-OV-3 ovarian = test system: SK-OV-3 ovarian
MCF7 breast = test system: MCF7 breast
SF-268 CNS = test system: SF-268 CNS
NCI-H522 lung = test system: NCI-H522 lung
IGROV1 ovarian = test system: IGROV1 ovarian
NCI/ADR-RES ovarian = test system: NCI/ADR-RES ovarian
HOP-92 NSCLC = test system: HOP-92 NSCLC
NCI-H23 lung = test system: NCI-H23 lung
RPMI-8226 leukemia = test system: RPMI-8226 leukemia
SNB-19 CNS = test system: SNB-19 CNS
OVCAR-3 ovarian = test system: OVCAR-3 ovarian
HS 578T breast = test system: HS 578T breast
HT29 colon = test system: HT29 colon
UACC-62 melanoma = test system: UACC-62 melanoma
OVCAR-8 ovarian = test system: OVCAR-8 ovarian
SF-295 CNS = test system: SF-295 CNS

## Cc1cc(C)c(CNC(=O)c2cc(-c3ccc(CN4CCOCC4)cc3)cc3c2cnn3C2CCCC2)c(=O)[nH]1
NCI-H460 lung
  GI50: 16.1 µM
  TGI: 43 µM
CAKI-1 renal
  GI50: 16.1 µM
  TGI: 42.2 µM
A498 renal
  GI50: 15.5 µM
  TGI: 34.6 µM
ACHN renal
  GI50: 15.1 µM
  TGI: 34.6 µM
PC-3 prostate
  GI50: 17.9 µM
  TGI: 54.6 µM
U251 CNS
  GI50: 15.2 µM
  TGI: 31.7 µM
SN12C renal
  GI50: 19.3 µM
  TGI: 46.6 µM
HCT-15 colon
  GI50: 10.2 µM
  TGI: 25.9 µM
NCI-H226 lung
  GI50: 17.5 µM
  TGI: 37 µM
MOLT-4 leukemia
  GI50: 17.5 µM
  TGI: > 100 µM
SW-620 colon
  GI50: 25.3 µM
  TGI: > 100 µM
786-0 renal
  GI50: 17.6 µM
  TGI: 42.4 µM
MDA-MB-435
  GI50: 15.9 µM
  TGI: 35 µM
DU-145 prostate
  GI50: 21.5 µM
  TGI: 81 µM
HCC-2998 colon
  GI50: 16.6 µM
  TGI: 35.5 µM
CCRF-CEM leukemia
  GI50: 26.3 µM
  TGI: 97.5 µM
K-562 leukemia
  GI50: 21.4 µM
  TGI: > 100 µM
SK-MEL-28 melanoma
  GI50: 15.7 µM
  TGI: 32.4 µM
OVCAR-4 ovarian
  GI50: 21.3 µM
  TGI: 91.6 µM
MDA-MB-231 breast
  GI50: 19.9 µM
  TGI: 51.7 µM
MALME-3M melanoma
  GI50: 16.7 µM
  TGI: 34.1 µM
M14 melanoma
  GI50: 18.8 µM
  TGI: 43.1 µM
SNB-75 CNS
  GI50: 12.6 µM
  TGI: 32.4 µM
RXF 393 renal
  GI50: 14.6 µM
  TGI: 32.6 µM
HL-60(TB) leukemia
  GI50: 16.5 µM
  TGI: 55.2 µM
HOP-62 NSCLC
  GI50: 18 µM
  TGI: 39.3 µM
SF-539 CNS
  GI50: 16.1 µM
  TGI: 34.4 µM
EKVX NSCLC
  GI50: 11.8 µM
  TGI: 28.2 µM
LOX IMVI melanoma
  GI50: 15.3 µM
  TGI: 34.2 µM
COLO 205 colon
  GI50: 14.7 µM
  TGI: 34 µM
SK-MEL-2 melanoma
  GI50: 17.8 µM
  TGI: 35.4 µM
SK-MEL-5 melanoma
  GI50: 13.7 µM
  TGI: 27.3 µM
T-47D breast
  GI50: 12.9 µM
  TGI: 50.4 µM
A549 NSCLC
  GI50: 17.8 µM
  TGI: 41.6 µM
UO-31 renal
  GI50: 8.8 µM
  TGI: 26.6 µM
BT-549 breast
  GI50: 17.1 µM
  TGI: 41.7 µM
KM12 colon
  GI50: 18.6 µM
  TGI: 49 µM
SR leukemia
  GI50: 22.4 µM
  TGI: 65.5 µM
UACC-257 melanoma
  GI50: 21 µM
  TGI: 42.8 µM
TK-10 renal
  GI50: 16.4 µM
  TGI: 35.9 µM
HCT-116 colon
  GI50: 18.2 µM
  TGI: 50.2 µM
OVCAR-5 ovarian
  GI50: 22.1 µM
  TGI: 63.5 µM
SK-OV-3 ovarian
  GI50: 20.1 µM
  TGI: 44.5 µM
MCF7 breast
  GI50: 10.8 µM
  TGI: 28.8 µM
SF-268 CNS
  GI50: 13.9 µM
  TGI: 43.8 µM
NCI-H522 lung
  GI50: 16.2 µM
  TGI: 30.4 µM
IGROV1 ovarian
  GI50: 17.6 µM
  TGI: 67.8 µM
NCI/ADR-RES ovarian
  GI50: 15.1 µM
  TGI: 42.5 µM
HOP-92 NSCLC
  GI50: 10.2 µM
  TGI: 27.2 µM
NCI-H23 lung
  GI50: 18.5 µM
  TGI: 47.8 µM
RPMI-8226 leukemia
  GI50: 13.7 µM
  TGI: 50.7 µM
SNB-19 CNS
  GI50: 24.7 µM
  TGI: 77.1 µM
OVCAR-3 ovarian
  GI50: 13.4 µM
  TGI: 30.9 µM
HS 578T breast
  GI50: 19.1 µM
  TGI: 64 µM
HT29 colon
  GI50: 11.8 µM
  TGI: 27.1 µM
UACC-62 melanoma
  GI50: 17.8 µM
  TGI: 43.2 µM
OVCAR-8 ovarian
  GI50: 17.3 µM
  TGI: 57.9 µM
SF-295 CNS
  GI50: 16.6 µM
  TGI: 36.5 µM
